According to US11453847B2, “Laundry sheet” (priority 2018, dated 2022):

Assays:
Water flea = details: in vivo
Protocol: (§1) (4) An ecotoxicity test was performed on various alkyl polyglucosides.

Algal = details: in vivo
Protocol: as §1

Substance: alkyl ethoxylate [AEO]
- Water flea test EC50 (49 h) (Water flea): 1.9 µg/mL
- Algal test EC50 (72 h) (Algal): 1.2 µg/mL

Substance: fatty acid methyl ester ethoxylate [FMEE]
- Water flea test EC50 (49 h) (Water flea): 79.2 µg/mL
- Algal test EC50 (72 h) (Algal): >100 µg/mL
